Laboratory results: PMC3989888 (Virology, 2014)
Read-outs that look alike come from different tables or passages of the source.

Key:
CD4 T cells (PBMC) [1] = experiment: Ex vivo class II tetramer staining and phenotyping of PBMC from adults; format: cell-based, human (DRB1*0101 healthy adults); details: for #Tet+/6.0×10^5 CD4+ T cells: ex vivo fresh PBMC, tetramer of the peptide; for % α4β7(+) CCR9(+) / % α4β7(+) CCR9(−) / % α4β7(−) CCR9(+) / % α4β7(−) CCR9(−): of antigen experienced tetramer+ CD4 T cells; for % Antigen experienced T cells: tetramer+ CD4 T cells, CD62L−CD45RA+/− and CD62L+CD45RA−
CD4 T cells (PBMC) [2] = format: cell-based, human (HLA-DR1 children)

**Q.** RVEYHFLSPYVSRKESP [TRF] was tested. Which “#Tet+/6.0×10^5 CD4+ T cells” value (CD4 T cells (PBMC) [1]; HA-02) did it give?
**A.** The value was 8 /6.0×10^5 CD4^+ T cells.

**Q.** And the “% α4β7(+) CCR9(+)” value (CD4 T cells (PBMC) [1]; HA-02)?
**A.** Its value is 33.3%.

**Q.** And the “% α4β7(+) CCR9(−)” value (CD4 T cells (PBMC) [1]; HA-02)?
**A.** The value was 33.3%.

**Q.** And the “% α4β7(−) CCR9(+)” value (CD4 T cells (PBMC) [1]; HA-02)?
**A.** Its value is 0%.

**Q.** And the “% α4β7(−) CCR9(−)” value (CD4 T cells (PBMC) [1]; HA-02)?
**A.** Its value is 33.3%.

**Q.** What about the “% Antigen experienced T cells” value (CD4 T cells (PBMC) [1]; HA-02) of the same sequence?
**A.** The value was 54.5%.

**Q.** And the “#Tet+/6.0×10^5 CD4+ T cells” value (CD4 T cells (PBMC) [1]; HA-15)?
**A.** Its value is 4 /6.0×10^5 CD4^+ T cells.

**Q.** And the “% Antigen experienced T cells” value (CD4 T cells (PBMC) [1]; HA-15)?
**A.** The value was 0%.

**Q.** What about the “#Tet+/6.0×10^5 CD4+ T cells” value (CD4 T cells (PBMC) [1]; HA-19) of the same sequence?
**A.** The value was 10 /6.0×10^5 CD4^+ T cells.

**Q.** And the “% α4β7(+) CCR9(+)” value (CD4 T cells (PBMC) [1]; HA-19)?
**A.** The value was 33.3%.

**Q.** And the “% α4β7(+) CCR9(−)” value (CD4 T cells (PBMC) [1]; HA-19)?
**A.** Its value is 8.33%.

**Q.** And the “% α4β7(−) CCR9(+)” value (CD4 T cells (PBMC) [1]; HA-19)?
**A.** The value was 25%.

**Q.** And the “% α4β7(−) CCR9(−)” value (CD4 T cells (PBMC) [1]; HA-19)?
**A.** Its value is 33.3%.

**Q.** What about the “% Antigen experienced T cells” value (CD4 T cells (PBMC) [1]; HA-19) of the same sequence?
**A.** Its value is 85.7%.

**Q.** And the “#Tet+/6.0×10^5 CD4+ T cells” value (CD4 T cells (PBMC) [1]; HA-23)?
**A.** The value was 8 /6.0×10^5 CD4^+ T cells.

**Q.** What about the “% α4β7(+) CCR9(+)” value (CD4 T cells (PBMC) [1]; HA-23) of the same sequence?
**A.** Its value is 25%.

**Q.** What about the “% α4β7(+) CCR9(−)” value (CD4 T cells (PBMC) [1]; HA-23) of the same sequence?
**A.** Its value is 25%.

**Q.** And the “% α4β7(−) CCR9(+)” value (CD4 T cells (PBMC) [1]; HA-23)?
**A.** Its value is 0%.

**Q.** What about the “% α4β7(−) CCR9(−)” value (CD4 T cells (PBMC) [1]; HA-23) of the same sequence?
**A.** The value was 50%.

**Q.** What about the “% Antigen experienced T cells” value (CD4 T cells (PBMC) [1]; HA-23) of the same sequence?
**A.** The value was 57.1%.

**Q.** What about the “#Tet+/6.0×10^5 CD4+ T cells” value (CD4 T cells (PBMC) [1]; HA-29) of the same sequence?
**A.** The value was 14 /6.0×10^5 CD4^+ T cells.

**Q.** And the “% α4β7(+) CCR9(+)” value (CD4 T cells (PBMC) [1]; HA-29)?
**A.** The value was 50%.

**Q.** And the “% α4β7(+) CCR9(−)” value (CD4 T cells (PBMC) [1]; HA-29)?
**A.** The value was 0%.

**Q.** What about the “% α4β7(−) CCR9(+)” value (CD4 T cells (PBMC) [1]; HA-29) of the same sequence?
**A.** The value was 0%.

**Q.** And the “% α4β7(−) CCR9(−)” value (CD4 T cells (PBMC) [1]; HA-29)?
**A.** The value was 50%.

**Q.** What about the “% Antigen experienced T cells” value (CD4 T cells (PBMC) [1]; HA-29) of the same sequence?
**A.** The value was 50%.

**Q.** What about the “#Tet+/6.0×10^5 CD4+ T cells” value (CD4 T cells (PBMC) [1]; HA-41) of the same sequence?
**A.** The value was 3 /6.0×10^5 CD4^+ T cells.

**Q.** What about the “% α4β7(+) CCR9(+)” value (CD4 T cells (PBMC) [1]; HA-41) of the same sequence?
**A.** Its value is 0%.

**Q.** And the “% α4β7(+) CCR9(−)” value (CD4 T cells (PBMC) [1]; HA-41)?
**A.** Its value is 33.3%.

**Q.** And the “% α4β7(−) CCR9(+)” value (CD4 T cells (PBMC) [1]; HA-41)?
**A.** The value was 0%.

**Q.** What about the “% α4β7(−) CCR9(−)” value (CD4 T cells (PBMC) [1]; HA-41) of the same sequence?
**A.** The value was 66.7%.

**Q.** What about the “% Antigen experienced T cells” value (CD4 T cells (PBMC) [1]; HA-41) of the same sequence?
**A.** The value was 100%.

**Q.** What about the “#Tet+/6.0×10^5 CD4+ T cells” value (CD4 T cells (PBMC) [1]; HA-51) of the same sequence?
**A.** Its value is 98 /6.0×10^5 CD4^+ T cells.

**Q.** What about the “% α4β7(+) CCR9(+)” value (CD4 T cells (PBMC) [1]; HA-51) of the same sequence?
**A.** The value was 20.7%.

**Q.** What about the “% α4β7(+) CCR9(−)” value (CD4 T cells (PBMC) [1]; HA-51) of the same sequence?
**A.** Its value is 44.8%.

**Q.** What about the “% α4β7(−) CCR9(+)” value (CD4 T cells (PBMC) [1]; HA-51) of the same sequence?
**A.** Its value is 6.9%.

**Q.** What about the “% α4β7(−) CCR9(−)” value (CD4 T cells (PBMC) [1]; HA-51) of the same sequence?
**A.** The value was 27.6%.

**Q.** And the “% Antigen experienced T cells” value (CD4 T cells (PBMC) [1]; HA-51)?
**A.** Its value is 36.7%.

**Q.** And the “#Tet+/6.0×10^5 CD4+ T cells” value (CD4 T cells (PBMC) [1]; HA-52)?
**A.** Its value is 72 /6.0×10^5 CD4^+ T cells.

**Q.** What about the “% α4β7(+) CCR9(+)” value (CD4 T cells (PBMC) [1]; HA-52) of the same sequence?
**A.** The value was 0%.

**Q.** What about the “% α4β7(+) CCR9(−)” value (CD4 T cells (PBMC) [1]; HA-52) of the same sequence?
**A.** Its value is 66.7%.

**Q.** What about the “% α4β7(−) CCR9(+)” value (CD4 T cells (PBMC) [1]; HA-52) of the same sequence?
**A.** The value was 0%.

**Q.** What about the “% α4β7(−) CCR9(−)” value (CD4 T cells (PBMC) [1]; HA-52) of the same sequence?
**A.** Its value is 33.3%.

**Q.** And the “% Antigen experienced T cells” value (CD4 T cells (PBMC) [1]; HA-52)?
**A.** Its value is 27.3%.

**Q.** And the “Tetramer+ cells with phenotype of antigen-experienced cells” value (CD4 T cells (PBMC) [2]; both groups of children (vaccinated and placebo), data not shown)?
**A.** The value was 0–30%.

**Q.** What about the “Frequency of tetramer stained antigen experienced CD4 T cells” value (CD4 T cells (PBMC) [2]; placebo recipient children (n = 3)) of the same sequence?
**A.** The value was <0.0001–0.003%.

**Q.** What about the “Frequency of tetramer stained antigen experienced CD4 T cells” value (CD4 T cells (PBMC) [2]; vaccinated children (n = 3), two weeks after second dose of RIX4414) of the same sequence?
**A.** Its value is <0.0001–0.01%.
